Experimental data taken from US11021444B2, “Antiviral compounds” (priority 2013, dated 2021).
Like-named read-outs stand apart in the source and are kept apart here.

Experiments:
[1] = tested on: Respiratory Syncytial Virus (RSV) long strain; experiment: microbe, parasite or virus in culture; type: cell-based; details: human respiratory syncytial virus, Tables A and B list compounds by EC50 band
Summary of the method: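 CPE-reduction format: viability measured colorimetrically with CCK-8 (450 nm, 630 nm reference) after 3-4 h, following 5-day infection at 37 °C, 5% CO2. Cells were HEp-2; inoculum 100 TCID50/well; duplicate 9-point 1/3 series starting at 100 μM or 1 μM.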

recombinant RSV complex = recombinant RSV complex (Human respiratory syncytial virus A, UniProt P28887); experiment: RSV Polymerase Inhibition Assay; type: biochemical
Sequence of recombinant RSV complex (P28887 whole entry): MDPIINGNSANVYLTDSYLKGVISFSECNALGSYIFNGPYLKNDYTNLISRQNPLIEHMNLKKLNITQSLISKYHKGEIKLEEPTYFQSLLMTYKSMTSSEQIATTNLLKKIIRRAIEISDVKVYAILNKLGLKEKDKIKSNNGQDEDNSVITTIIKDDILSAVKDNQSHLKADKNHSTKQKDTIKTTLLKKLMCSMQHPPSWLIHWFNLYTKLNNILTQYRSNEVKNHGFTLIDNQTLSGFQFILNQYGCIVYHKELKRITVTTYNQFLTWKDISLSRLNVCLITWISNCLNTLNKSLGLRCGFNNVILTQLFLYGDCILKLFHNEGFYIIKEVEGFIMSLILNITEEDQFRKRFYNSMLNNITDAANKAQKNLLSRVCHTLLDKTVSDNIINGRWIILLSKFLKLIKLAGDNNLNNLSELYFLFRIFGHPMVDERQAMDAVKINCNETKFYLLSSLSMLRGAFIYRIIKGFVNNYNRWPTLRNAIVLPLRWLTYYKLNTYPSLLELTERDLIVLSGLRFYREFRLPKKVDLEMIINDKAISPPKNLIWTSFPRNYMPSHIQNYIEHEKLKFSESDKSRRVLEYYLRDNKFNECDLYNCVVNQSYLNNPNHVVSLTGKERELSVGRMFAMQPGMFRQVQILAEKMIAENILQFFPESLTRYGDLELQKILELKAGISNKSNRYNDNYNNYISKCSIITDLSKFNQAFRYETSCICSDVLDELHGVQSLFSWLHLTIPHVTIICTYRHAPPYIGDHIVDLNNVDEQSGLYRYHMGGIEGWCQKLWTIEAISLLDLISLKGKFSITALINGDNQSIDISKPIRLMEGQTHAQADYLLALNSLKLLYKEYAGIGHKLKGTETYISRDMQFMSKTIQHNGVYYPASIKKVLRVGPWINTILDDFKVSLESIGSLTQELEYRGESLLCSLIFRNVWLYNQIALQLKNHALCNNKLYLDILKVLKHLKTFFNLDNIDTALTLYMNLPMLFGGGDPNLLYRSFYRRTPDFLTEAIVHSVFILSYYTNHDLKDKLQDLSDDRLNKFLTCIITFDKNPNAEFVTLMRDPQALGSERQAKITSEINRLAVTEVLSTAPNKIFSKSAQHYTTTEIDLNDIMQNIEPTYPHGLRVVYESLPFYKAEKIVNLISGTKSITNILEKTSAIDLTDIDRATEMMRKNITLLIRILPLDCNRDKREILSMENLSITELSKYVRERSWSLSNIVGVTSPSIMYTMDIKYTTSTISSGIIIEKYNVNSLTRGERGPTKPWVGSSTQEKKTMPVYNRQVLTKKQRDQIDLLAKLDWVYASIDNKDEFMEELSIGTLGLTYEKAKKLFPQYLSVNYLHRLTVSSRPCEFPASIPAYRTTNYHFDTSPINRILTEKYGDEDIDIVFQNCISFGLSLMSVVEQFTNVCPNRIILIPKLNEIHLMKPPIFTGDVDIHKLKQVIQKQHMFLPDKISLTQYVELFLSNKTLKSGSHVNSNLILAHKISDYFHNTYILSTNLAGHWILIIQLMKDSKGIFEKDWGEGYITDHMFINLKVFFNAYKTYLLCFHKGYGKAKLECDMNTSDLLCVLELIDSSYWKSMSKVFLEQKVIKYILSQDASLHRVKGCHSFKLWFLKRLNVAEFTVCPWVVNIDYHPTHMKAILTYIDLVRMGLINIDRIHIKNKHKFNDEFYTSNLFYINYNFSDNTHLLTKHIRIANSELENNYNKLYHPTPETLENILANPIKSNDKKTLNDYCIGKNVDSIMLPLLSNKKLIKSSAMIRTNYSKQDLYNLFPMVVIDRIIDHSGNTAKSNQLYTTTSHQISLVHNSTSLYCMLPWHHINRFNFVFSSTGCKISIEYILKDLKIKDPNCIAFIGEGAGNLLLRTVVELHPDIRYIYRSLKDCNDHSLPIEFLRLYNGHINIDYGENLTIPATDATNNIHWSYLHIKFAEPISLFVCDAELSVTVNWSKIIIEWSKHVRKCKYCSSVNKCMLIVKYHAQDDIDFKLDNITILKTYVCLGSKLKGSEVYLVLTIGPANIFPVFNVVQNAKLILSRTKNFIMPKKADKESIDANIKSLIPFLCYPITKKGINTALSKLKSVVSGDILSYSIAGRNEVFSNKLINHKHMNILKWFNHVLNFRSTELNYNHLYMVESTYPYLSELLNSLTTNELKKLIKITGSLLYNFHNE
Sequence of recombinant RSV complex (P03421 whole entry, further chain): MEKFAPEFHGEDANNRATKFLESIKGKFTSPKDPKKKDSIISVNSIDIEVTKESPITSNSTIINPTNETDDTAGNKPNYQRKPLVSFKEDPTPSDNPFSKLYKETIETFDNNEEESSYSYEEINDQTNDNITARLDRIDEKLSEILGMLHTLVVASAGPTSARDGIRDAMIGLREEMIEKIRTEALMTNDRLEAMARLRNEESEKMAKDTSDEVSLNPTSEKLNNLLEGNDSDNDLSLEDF
Summary of the method: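 Inhibition measured as reduced incorporation of radiolabel into RNA products, detected by scintillation counting. Reactions: recombinant RSV complex (10 nM), RNA oligonucleotides, Tris-HCl pH 7.5, 6 mM MgCl2, inhibitor titration, 2 h at 30 °C, EDTA stop.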

RSV replicon = experiment: microbe, parasite or virus in culture; type: cell-based; details: human respiratory syncytial virus, read-out: EC50, the concentration of the drug required for reducing RSV replicon RNA by 50%
Method: The Renilla Luciferase Assay System (Promega, Cat. #E2820) was used to measure anti-RSV replicon activity. […] Luminescence was recorded using a Perkin Elmer multilabel counter Victor3V. EC50, the concentration of the drug required for reducing RSV replicon RNA by 50% in relation to the untreated cell control value, was calculated from the plot of percentage reductions of the optical density (OD) value against the drug concentrations using the Microsoft Excel forecast function.

[2] = Cytotoxicity Determination (CCK-8, without addition of virus); type: cell-based; details: human, 50% cytotoxicity concentration (CC50)
Summary of the method: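 Cytotoxicity was measured by CCK-8 after 3-4 hours at 37 °C, following 5 days of uninfected exposure at 37 °C and 5% CO2. Compounds ran as duplicate 7-point 1/2 dilutions starting at 100 μM, with 1% final DMSO. HEp-2 cells had been plated at 1,500/well the day before.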

[3] = HEp-2, 120 h, read-out: 50% effective concentration (EC50), HEp-2 cells infected with RSV long strain, 5 days, CCK-8 readout
[4] = 120 h, read-out: 50% effective concentration (EC50), HEp-2 cells infected with RSV long strain, 5 days, CCK-8 readout

SMILES | EC50 [1, 3] [nM] | IC50 (recombinant RSV complex) [nM] | EC50 (RSV replicon) [nM] | CC50 at 5 days [2] [nM] | EC50 [1, 4] [nM] | IC50 (recombinant RSV complex; read-out: IC50 (compound concentration at which the enzyme-catalyzed rate was reduced by 50%), 10 nM recombinant RSV complex, 2 h at 30° C., Tables E, F and G list compounds by IC50 band) [nM]
COc1cc(C(=O)NCC(O)(Cn2ccnc2)c2cc3c(c(-c4ccc(F)c(Cl)c4)n2)OCC3(C)C)cc2cccnc12 (centres unmarked) [Compound 226] | < 1000 | < 1000 | < 1000 | 10000 to 100000 | – | –
COc1cc(C(=O)NCC(C)(O)c2cc3c(c(-c4c[nH]c5c(F)cccc45)n2)OCC3(C)C)ccc1OCCF (centres unmarked) [Compound 228] | < 1000 | < 1000 | < 1000 | > 100000 | – | –
COc1ccc(C(O)(CNC(=O)c2ccc(OC[C@@H](C)O)c(Cl)c2)C(F)(F)F)nc1-c1ccc(F)c(Cl)c1 (some centres unmarked) [Compound 232] | < 1000 | < 1000 | < 1000 | 10000 to 100000 | – | –
COc1ccc(C(O)(CNC(=O)c2ccc(OCC(N)=O)c(Cl)c2)C(F)(F)F)nc1-c1ccc(F)c(Cl)c1 (centres unmarked) [Compound 237] | < 1000 | < 1000 | < 1000 | 10000 to 100000 | – | –
COc1cc(C(=O)NCC(O)(c2ccc(OC)c(-c3ccc(F)c(Cl)c3)n2)C(F)(F)F)ccc1OCC(N)=O (centres unmarked) [Compound 240] | – | < 1000 | < 1000 | 10000 to 100000 | < 1000 | –
COc1cc(C(=O)NCC(O)(c2ccc(OC)c(-c3ccc(F)c(Cl)c3)n2)C2CC2)ccc1OCCO (centres unmarked) [Compound 241] | < 1000 | < 1000 | < 1000 | 10000 to 100000 | – | –
COc1cc(C(=O)NCC(O)(c2ccc(OC)c(-c3ccc(F)c(Cl)c3)n2)C(F)(F)F)ccc1OC1CC(F)(F)C1 (centres unmarked) [Compound 244] | < 1000 | < 1000 | < 1000 | > 100000 | – | –
COc1cc(C(=O)NCC(O)(c2ccc(OC)c(-c3ccc(F)c(Cl)c3)n2)C(F)(F)F)ccc1OC1CCC1 (centres unmarked) [Compound 245] | < 1000 | < 1000 | < 1000 | > 100000 | – | –
COc1cc(C(=O)NCC(O)(c2ccc(OC)c(-c3ccc(F)c(Cl)c3)n2)C(F)(F)F)ccc1OC1(CF)CC1 (centres unmarked) [Compound 248] | < 1000 | < 1000 | < 1000 | > 100000 | – | –
COc1cc(C(=O)NCC(O)(c2ccc(OC)c(-c3ccc(F)c(Cl)c3)n2)C(F)(F)F)ccc1OC1(C)CC1 (centres unmarked) [Compound 249] | < 1000 | < 1000 | < 1000 | 10000 to 100000 | – | –
COc1cc(C(=O)NCC(O)(c2ccc(OC)c(-c3ccc(F)c(Cl)c3)n2)C(F)(F)F)ccc1OC1COC1 (centres unmarked) [Compound 250] | – | < 1000 | < 1000 | 10000 to 100000 | < 1000 | –
COc1cc(C(=O)NCC(O)(c2cc(C(C)(C)N)cc(-c3ccc(F)c(Cl)c3)n2)C(F)(F)F)ccc1O[C@H]1CCNC1=O (some centres unmarked) [Compound 283] | < 1000 | < 1000 | < 1000 | 10000 to 100000 | – | –
COc1cc(C(=O)NCC(=O)c2cc3c(c(-c4ccc(F)c(C(C)F)c4)n2)OCCC3(C)C)ccc1OCCO (centres unmarked) [Compound 298] | < 1000 | < 1000 | < 1000 | 10000 to 100000 | – | –
COc1cc(C(=O)NCC(=O)c2cc3c(c(-c4ccc(F)c(Cl)c4)n2)OCC=C3)ccc1OCCF [Compound 302] | 1000 to 50000 | < 1000 | < 1000 | > 100000 | – | –
COc1cc(C(=O)NCC(=O)c2cc3c(c(-c4ccc(F)c(Cl)c4)n2)OCCC3)ccc1OCCF [Compound 303] | < 1000 | < 1000 | < 1000 | > 100000 | – | –
COc1cc(C(=O)NCC(=O)c2cc3c(c(-c4ccc(F)c(Cl)c4)n2)OCCC3)ccc1OCCO [Compound 304] | < 1000 | < 1000 | < 1000 | > 100000 | – | –
COc1cc(C(=O)NCC(O)(c2cc3c(c(-c4ccc(F)c(Cl)c4)n2)OCC3C)C2CC2)ccc1OCCO (centres unmarked) [Compound 308] | < 1000 | < 1000 | < 1000 | 10000 to 100000 | – | –
COc1cc(C(=O)NCC(O)(c2cc3c(c(-c4ccc(F)c(Cl)c4)n2)OCCC3)C2CC2)ccc1OCCO (centres unmarked) [Compound 309] | < 1000 | < 1000 | < 1000 | 10000 to 100000 | – | –
COc1cc(C(=O)NCC(O)(c2cc3c(c(-c4ccc(F)c(Cl)c4)n2)OCC3)C2CC2)ccc1OCCO (centres unmarked) [Compound 310] | – | < 1000 | < 1000 | 10000 to 100000 | < 1000 | –

SMILES | EC50 [1, 3] [nM] | IC50 (recombinant RSV complex) [nM] | EC50 (RSV replicon) [nM] | CC50 at 5 days [2] [nM] | EC50 [1, 4] [nM] | IC50 (recombinant RSV complex; read-out: IC50 (compound concentration at which the enzyme-catalyzed rate was reduced by 50%), 10 nM recombinant RSV complex, 2 h at 30° C., Tables E, F and G list compounds by IC50 band) [nM]
COc1cc(C(=O)NCC(O)(c2cc3c(c(-c4ccc(F)c(Cl)c4)n2)OCCC3(C)C)C2CC2)ccc1OCCO (centres unmarked) [Compound 312] | < 1000 | < 1000 | < 1000 | 10000 to 100000 | – | –
COc1cc(C(=O)NCC(O)(c2ccc(OC)c(-c3ccc(F)c(Cl)c3)n2)C(C)(C)C)ccc1OCCF (centres unmarked) [Compound 313] | 1000 to 50000 | < 10000 | 1000 to 50000 | 10000 to 100000 | – | –
CCOc1ccc(C(=O)NCC(O)(c2cc(C(C)(C)N)cc(-c3ccc(F)c(Cl)c3)n2)C(F)(F)F)cc1OC (centres unmarked) [Compound 315] | < 1000 | < 1000 | < 1000 | 10000 to 100000 | – | –
COc1cc(C(=O)NCC(O)(c2cc(C(C)(C)N)cc(-c3ccc(F)c(Cl)c3)n2)C(F)(F)F)ccc1OC[C@@H](C)O (some centres unmarked) [Compound 317] | < 1000 | < 1000 | < 1000 | 10000 to 100000 | – | –
COc1cc(C(=O)NCC(O)(c2cc(C(C)(C)N)cc(-c3ccc(F)cc3)n2)C(F)(F)F)ccc1OC1CC1 (centres unmarked) [Compound 318] | < 1000 | < 1000 | < 1000 | 10000 to 100000 | – | –
COc1cc(C(=O)NCC(O)(c2cc(C(C)(C)N)cc(-c3ccc(F)c(Cl)c3)n2)C(F)(F)F)cc2cccnc12 (centres unmarked) [Compound 321] | < 1000 | < 1000 | < 1000 | 10000 to 100000 | – | –
COc1cc(C(=O)NCC(O)(c2cc(C(C)(C)N)cc(-c3ccc(F)c(Cl)c3)n2)C(F)(F)F)ccc1OCC(N)=O (centres unmarked) [Compound 322] | < 1000 | < 1000 | < 1000 | 10000 to 100000 | – | –
COc1cc(C(=O)NCC(O)(c2cc(C(C)(C)NC(C)=O)cc(-c3ccc(F)c(Cl)c3)n2)C(F)(F)F)ccc1OC1CC1 (centres unmarked) [Compound 326] | < 1000 | < 1000 | < 1000 | 10000 to 100000 | – | –
COc1cc(C(=O)NCC(O)(c2cc(CN)cc(-c3ccc(F)c(Cl)c3)n2)C(F)(F)F)ccc1OC1CC1 (centres unmarked) [Compound 327] | < 1000 | < 1000 | < 1000 | 10000 to 100000 | – | –
COc1cc(C(=O)NCC(O)(c2cc(CNC(C)=O)cc(-c3ccc(F)c(Cl)c3)n2)C(F)(F)F)ccc1OC1CC1 (centres unmarked) [Compound 328] | < 1000 | < 1000 | < 1000 | 10000 to 100000 | – | –
COc1cc(C(=O)NCC(O)(c2cc(C(C)(C)NS(C)(=O)=O)cc(-c3ccc(F)c(Cl)c3)n2)C(F)(F)F)ccc1OC1CC1 (centres unmarked) [Compound 330] | – | < 1000 | < 1000 | 10000 to 100000 | < 1000 | –
CCOC(=O)NC(C)(C)c1cc(-c2ccc(F)c(Cl)c2)nc(C(O)(CNC(=O)c2ccc(OC3CC3)c(OC)c2)C(F)(F)F)c1 (centres unmarked) [Compound 331] | < 1000 | – | < 1000 | > 100000 | – | < 1000
COc1cc(C(=O)NCC(O)(c2ccc(OC)c(-c3ccc(F)c(Cl)c3)n2)C(F)(F)F)ccc1OCCO (centres unmarked) [Compound 334] | < 1000 | < 1000 | < 1000 | 10000 to 100000 | – | –
COc1cc(C(=O)NCC(O)(c2cc3c(c(-c4ccc(F)c(Cl)c4)n2)NCC3(C)C)C(F)(F)F)ccc1OC1CC1 (centres unmarked) [Compound 335] | < 1000 | < 1000 | < 1000 | > 100000 | – | –
COc1cc(C(=O)NCC(F)(c2ccc(OC)c(-c3ccc(F)c(Cl)c3)n2)C(F)(F)F)ccc1OC[C@@H](C)O (some centres unmarked) [Compound 342] | < 1000 | < 1000 | < 1000 | 10000 to 100000 | – | –
COc1cc(C(=O)NCC(F)(c2ccc(OC)c(-c3ccc(F)c(Cl)c3)n2)C(F)(F)F)ccc1OCC(N)=O (centres unmarked) [Compound 343] | < 1000 | < 1000 | < 1000 | 10000 to 100000 | – | –
COc1cc(C(=O)NCC(F)(c2ccc(OC)c(-c3ccc(F)c(Cl)c3)n2)C(F)(F)F)ccc1OC1CCNC1=O (centres unmarked) [Compound 344] | < 1000 | < 1000 | < 1000 | 10000 to 100000 | – | –
COc1cc(C(=O)NCC(O)(c2ccc(OC)c(-c3ccc(F)c(Cl)c3)n2)C(F)(F)F)ccc1OC1CCNC1=O (centres unmarked) [Compound 349] | < 1000 | < 1000 | < 1000 | 10000 to 100000 | – | –
COc1cc(C(=O)NCC(O)(c2cc(C(C)(C)NCCF)cc(-c3ccc(F)c(Cl)c3)n2)C(F)(F)F)ccc1OC1CC1 (centres unmarked) [Compound 356] | < 1000 | < 1000 | < 1000 | 10000 to 100000 | – | –
